In patent US11884686B2, “Chelate compounds” (priority 2016, dated 2024):

Tests used:
[1] = Water solubility of Mn(II) based chelates; assay type: physicochemical; details: thermodynamic from solid, 25° C.
Experimental: The solubility of Mn(II) based chelates was confirmed by dissolving purified Mn(II) based chelates ( 99% purity) in a prescribed volume of solvent (Millipore water 18.2 MegaOhm from a Millipore BioCell Benchtop unit) to provide a solution of given volume. Solutions were visually inspected for homogeneity and filtered through a 0.45 um PTFE filter membrane if necessary. The assessment was carried out at 25° C. Final sample concentrations were confirmed by determination of final Mn(II) concentration via ICP-MS (Spectro Arcos FHS[…] 10003910 or S/N 12006120).

[2] = In vitro proton relaxivity in human serum; assay type: physicochemical; details: 60 MHz, 40° C.
Experimental: Both the longitudinal and transverse relaxation times were measured in human serum (BioreclamationIVT, Cat #HMSRM-M) to reflect the efficiency of the Mn(II) based chelates in an environment close to physiological. The relaxivity assessment was carried out at a concentration ranging from 5 to 0 mM Mn(II), at 40° C. using a Minispec Mq benchtop NMR relaxometer (Bruker Instruments, Rheinstetten, Germany) operating at 60 MHz (1.4 T) with an inversion recovery pulse sequence. The longitudinal and transverse relaxivities of the complexes (e.g., r1 and r2 respectively) were calculated by plotting the reciprocal of their relaxation time versus the manganese concentration as determined via ICP-MS (Spectro Arcos FHS12, S/N 10003910 or S/N 12006120) for each Mn(II) based chelates. The dependence of T1 by B0 (i.e., magnetic field) applied was assessed via the acquisition of ^1H Nuclear Magnetic Relaxation Dispersion (NMRD) profiles. A dedicated Stelar SMARTracer Fast Field Cycling relaxometer (0.01-10 MHz) and a Bruker WP80 NMR electromagnet adapted to variable field measurements (20-80 MHz) and controlled by a SMARTracer PC-NMR console was used to record the ^1H NMRD profiles over an extended range of Larmor Frequencies (from 0.01 to 80 MHz). The temperature was monitored by a VTC91 temperature control unit and maintained by a gas flow. The temperature was determined by previous calibration with a Pt resistance temperature probe. High field relaxivities were measured on a Bruker AVANCE NMR spectrometer at 400 MHz. A total of 25 data points per NMRD profile were recorded at each temperature, pH 6.9 and with a manganese concentration in the samples of 6.99, 6.78 and 4.45 mM for the prior art Mn Chelate, Mn Chelate 4 and Mn Chelate 3, respectively. The concentration of Mn(II) in all samples was verified by Bulk Magnetic Susceptibility (BMS) measurements. Relaxivity was computed by subtracting the relaxation rate of the medium (distilled water) from the relaxation rate of the Mn(II) complex solution at each field strength and dividing the difference by the manganese concentration verified by BMS measurements.
The linear fit (R2>0.99 for all compounds examined) of 1/T1 and 1/T2 as a function of Mn concentration generated the r1 or r2 values reported in Table 4 for human serum.

SMILES	solubility [1] [mM]	r1 (longitudinal relaxivity) [2] [mM⁻¹ s⁻¹]
CN1CCN2Cc3cccc(n3)CN(CC1)C(CCC(=O)NC[C@H](O)[C@@H](O)[C@H](O)[C@H](O)CO)C(=O)[O][Mn][O]C(=O)C2CCC(=O)NC[C@H](O)[C@@H](O)[C@H](O)[C@H](O)CO (stereo partly shown) [Mn Chelate 5]	> 500	5.2
CN1CCN2Cc3cccc(n3)CN(CC1)C(CC(=O)NC[C@H](O)[C@@H](O)[C@H](O)[C@H](O)CO)C(=O)[O][Mn][O]C(=O)C2CC(=O)NC[C@H](O)[C@@H](O)[C@H](O)[C@H](O)CO (stereo partly shown) [Mn Chelate 5a]	> 500	3.7
CN1CCN2Cc3cccc(n3)CN(CC1)C(CCC(=O)Nc1cc(C(=O)NCC(O)CO)cc(C(=O)NCC(O)CO)c1)C(=O)[O][Mn][O]C(=O)C2CCC(=O)Nc1cc(C(=O)NCC(O)CO)cc(C(=O)NCC(O)CO)c1 (stereo not shown) [Mn Chelate 7]	> 500	6.0
CN1CCN2Cc3cccc(n3)CN(CC1)C(CCC(=O)N(CCO)CCO)C(=O)[O][Mn][O]C(=O)C2CCC(=O)N(CCO)CCO (stereo not shown) [Mn Chelate 9]	> 500	4.3
CN1CCN2Cc3cccc(n3)CN(CC1)C(CCC(=O)NCC(O)CO)C(=O)[O][Mn][O]C(=O)C2CCC(=O)NCC(O)CO (stereo not shown) [Mn Chelate 10]	> 500	4.3
CN1CCN2Cc3cccc(n3)CN(CC1)C(CC(=O)NCC(O)CO)C(=O)[O][Mn][O]C(=O)C2CC(=O)NCC(O)CO (stereo not shown) [Mn Chelate 10a]	> 500	3.8
CN1CCN2Cc3cccc(n3)CN(CC1)C(CCC(=O)NC(CO)(CO)CO)C(=O)[O][Mn][O]C(=O)C2CCC(=O)NC(CO)(CO)CO (stereo not shown) [Mn Chelate 11]	–	4.6
